In ChEMBL document CHEMBL5528023, “Discovery of a CB2 and 5-HT1A receptor dual agonist for the treatment of depression and anxiety” (Eur J Med Chem, 2024):
pEC50, pIC50: −log10 of the molar value. ≈ marks a conversion by molar mass, not a printed value. Calls of active or inactive are those of the source. The calls are words filed in the database; no cut-off is given here.

Legend:
[1] = Half life in ICR mouse at 25 mg/kg, po measured upto 8 hrs by LC-MS/MS analysis; format: ADME, organism-based; details: in vivo
[2] = Tmax in ICR mouse at 25 mg/kg, po measured upto 8 hrs by LC-MS/MS analysis; format: ADME, organism-based; details: in vivo
Cannabinoid receptor 1 [3] = biological target: T1, Cannabinoid receptor 1 (Homo sapiens, UniProt P21554); assay: Antagonist activity at human CB1 receptor expressed in CHO cells assessed as inhibition of forskolin-stimulated cAMP formation preincubated with compound for 10 mins followed by forskolin induction and measured after 30 mins by HTRF analysis; format: functional, cell-based
[4] = AUClast in ICR mouse at 25 mg/kg, po measured upto 8 hrs by LC-MS/MS analysis; format: ADME, organism-based; details: in vivo
Cannabinoid receptor 2 [5] = biological target: T2, Cannabinoid receptor 2 (Homo sapiens, UniProt P34972); assay: Partial agonist activity at human CB2 receptor expressed in CHO cells assessed as forskolin-stimulated cAMP formation preincubated with compound for 10 mins followed by forskolin induction and measured after 30 mins by HTRF analysis relative to control; format: functional, cell-based; details: filed as partial agonist, time 40.0 min
Cannabinoid receptor 2 [6] = biological target: T2, Cannabinoid receptor 2; assay: Partial agonist activity at human CB2 receptor expressed in CHO cells assessed as forskolin-stimulated cAMP formation preincubated with compound for 10 mins followed by forskolin induction and measured after 30 mins by HTRF analysis; format: functional, cell-based
Cannabinoid receptor 1 [7] = biological target: T1, Cannabinoid receptor 1; assay: Antagonist activity at human CB1 receptor expressed in CHO cells assessed as inhibition of forskolin-stimulated cAMP formation by measuring maximum inhibition preincubated with compound for 10 mins followed by forskolin induction and measured after 30 mins by HTRF analysis relative to control; format: functional, cell-based; details: filed as antagonist, time 40.0 min
[8] = Solubility of compound in phosphate buffer at pH 6.8 by HPLC analysis; format: physicochemical
[9] = Cmax in ICR mouse at 25 mg/kg, po measured upto 8 hrs by LC-MS/MS analysis; format: ADME, organism-based; details: in vivo
Cannabinoid receptor 2 [10] = biological target: T2, Cannabinoid receptor 2; assay: Agonist activity at human CB2 receptor expressed in CHO cells assessed as forskolin-stimulated cAMP formation preincubated with compound for 10 mins followed by forskolin induction and measured after 30 mins by HTRF analysis; format: functional, cell-based
[11] = biological target: T3, 5-hydroxytryptamine receptor 1A (Homo sapiens) (UniProt P08908); assay: Agonist activity at human 5HT1A receptor expressed in HEK293 cells assessed as forskolin-stimulated cAMP formation preincubated with compound for 10 mins followed by forskolin induction and measured after 30 mins by HTRF analysis relative to control; format: functional, cell-based; details: filed as agonist, time 40.0 min
T3 sequence (whole entry): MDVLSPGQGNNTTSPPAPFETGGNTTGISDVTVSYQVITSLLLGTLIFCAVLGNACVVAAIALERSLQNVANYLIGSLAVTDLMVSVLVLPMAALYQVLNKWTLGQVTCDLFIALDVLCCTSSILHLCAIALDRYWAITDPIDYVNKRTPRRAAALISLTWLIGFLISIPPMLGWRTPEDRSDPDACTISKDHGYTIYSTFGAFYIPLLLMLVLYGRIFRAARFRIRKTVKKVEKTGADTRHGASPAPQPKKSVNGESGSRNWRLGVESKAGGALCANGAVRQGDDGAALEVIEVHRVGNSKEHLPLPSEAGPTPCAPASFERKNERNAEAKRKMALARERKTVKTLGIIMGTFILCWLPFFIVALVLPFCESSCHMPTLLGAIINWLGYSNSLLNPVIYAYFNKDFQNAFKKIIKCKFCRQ

Mus musculus [12] = assay: Anxiolytic activity against stress-induced hyperthermia in ip dosed ICR mouse assessed as reduction in basal core rectal temperature measured for 60 mins; format: functional, organism-based; details: dose 3-10 mg/kg
Mus musculus [13] = assay: Antidepressant activity in C57BL/6J mouse assessed as reduction in immobility time at 1 mg/kg, ip administered for 12 days by forced swim test; format: functional, organism-based; details: time 12.0 day
Mus musculus [14] = assay: Induction of spontaneous locomotor activity in C57BL/6 mouse assessed as distance traveled at 1 to 10 mg/kg, ip administered once per day for 15 days and measured after 1 hr; format: functional, organism-based; details: dose 1-10 mg/kg, time 361.0 hrs
Cannabinoid receptor 2 [15] = biological target: T2, Cannabinoid receptor 2; assay: Agonist activity at human CB2 receptor expressed in CHO cells assessed as forskolin-stimulated cAMP formation preincubated with compound for 10 mins followed by forskolin induction and measured after 30 mins by HTRF analysis relative to control; format: functional, cell-based; details: time 40.0 min
[16] = Toxicity in C57BL/6J mouse assessed as effect on body weight at 1 to 10 mg/kg, ip measured upto 10 days; format: organism-based; details: in vivo, 240 h, dose 1-10 mg/kg, time < 10 day
Mus musculus [17] = assay: Induction of spontaneous locomotor activity in C57BL/6 mouse at 3 mg/kg, ip measured at 15 mins; format: functional, organism-based
Mus musculus [18] = assay: Anxiolytic activity against stress-induced hyperthermia in ICR mouse assessed as reduction in basal core rectal temperature at 1 to 10 mg/kg, ip measured for 60 mins; format: functional, organism-based; details: dose 1-10 mg/kg
Mus musculus [19] = assay: Induction of spontaneous locomotor activity in C57BL/6 mouse at 1 mg/kg, ip measured at 1 hr; format: functional, organism-based
Mus musculus [20] = assay: Antidepressant activity in C57BL/6J mouse at 1 mg/kg, ip administered for 14 days by tail suspension test; format: functional, organism-based; details: time 14.0 day
Mus musculus [21] = assay: Induction of spontaneous locomotor activity in C57BL/6 mouse assessed as distance traveled at 10 mg/kg, ip measured at 1 hr; format: functional, organism-based
Mus musculus [22] = assay: Antidepressant activity in C57BL/6J mouse assessed as […] at 1 mg/kg, ip administered for 14 days by tail suspension test; format: functional, organism-based; details: time 14.0 day
[23] = Cmax in ICR mouse brain at 25 mg/kg, po measured upto 8 hrs by LC-MS/MS analysis; format: ADME, organism-based
Mus musculus [24] = assay: Antidepressant activity in C57BL/6J mouse assessed as reduction in immobility time at 1 mg/kg, ip administered for 12 days and measured after 15 mins by forced swim test; format: functional, organism-based; details: time 17295.0 min
Mus musculus [25] = assay: Antidepressant activity in C57BL/6J mouse assessed as reduction in immobility time at 3 to 10 mg/kg, ip administered for 12 days and measured after 15 mins by forced swim test; format: functional, organism-based; details: dose 3-10 mg/kg, time 17295.0 min
Mus musculus [26] = assay: Antidepressant activity in C57BL/6J mouse assessed as reduction in immobility time at 3 to 10 mg/kg, ip administered for 12 days by forced swim test; format: functional, organism-based; details: dose 3-10 mg/kg, time 12.0 day
Mus musculus [27] = assay: Anxiolytic activity against stress-induced hyperthermia in ip dosed ICR mouse assessed as reduction in delta temperature measured for 60 mins; format: functional, organism-based; details: dose 1-10 mg/kg
[28] = biological target: T4, 5-hydroxytryptamine receptor 1A (Homo sapiens, UniProt P08908); assay: Agonist activity at human 5HT1A receptor expressed in HEK293 cells assessed as forskolin-stimulated cAMP formation preincubated with compound for 10 mins followed by forskolin induction and measured after 30 mins by HTRF analysis; format: functional, cell-based
T4 sequence (P08908 whole entry): T3 sequence (whole entry)

T2 sequence (P34972 whole entry): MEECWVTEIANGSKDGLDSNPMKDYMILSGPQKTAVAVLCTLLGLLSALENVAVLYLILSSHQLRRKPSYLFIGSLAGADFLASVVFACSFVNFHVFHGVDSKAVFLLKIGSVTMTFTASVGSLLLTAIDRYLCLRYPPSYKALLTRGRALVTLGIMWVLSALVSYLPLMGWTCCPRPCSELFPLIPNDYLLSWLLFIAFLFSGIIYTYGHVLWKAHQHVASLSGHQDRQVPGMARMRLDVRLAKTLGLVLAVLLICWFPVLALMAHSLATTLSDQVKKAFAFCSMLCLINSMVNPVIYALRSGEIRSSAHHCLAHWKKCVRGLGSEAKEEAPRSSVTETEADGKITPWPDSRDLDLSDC
T1 sequence (P21554 whole entry): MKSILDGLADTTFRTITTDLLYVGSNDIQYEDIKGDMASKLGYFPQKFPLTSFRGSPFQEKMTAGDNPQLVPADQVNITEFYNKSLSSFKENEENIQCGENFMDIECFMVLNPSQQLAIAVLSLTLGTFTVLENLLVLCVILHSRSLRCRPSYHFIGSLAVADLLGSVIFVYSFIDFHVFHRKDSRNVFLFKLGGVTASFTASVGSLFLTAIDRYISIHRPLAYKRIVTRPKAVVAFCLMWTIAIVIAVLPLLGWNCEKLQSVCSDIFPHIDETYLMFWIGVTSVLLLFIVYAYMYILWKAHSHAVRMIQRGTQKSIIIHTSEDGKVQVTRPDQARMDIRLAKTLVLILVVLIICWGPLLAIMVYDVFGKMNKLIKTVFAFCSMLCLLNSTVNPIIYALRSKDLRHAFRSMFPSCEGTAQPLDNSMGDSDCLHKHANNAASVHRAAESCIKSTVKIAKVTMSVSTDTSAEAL

Compound	half-life [1] [h]	Tmax [2] [h]	pIC50 (Cannabinoid receptor 1 [3])	AUC(0-t) at 8 h [4] [ng·h/mL]	Emax (Cannabinoid receptor 2 [5]) [%]	pEC50 (Cannabinoid receptor 2 [6])	Imax (Cannabinoid receptor 1 [7]) [%]	Cmax [9] [ng/mL]	pEC50 (Cannabinoid receptor 2 [10])	other results
C=C(C)[C@@H]1CCC(C)=C[C@H]1c1c(O)cc(CCCCC)c(C(=O)N(C)C)c1O	1.7	0.4	5.16	26.3	73.6	5.99	88.9	22.2	–	solubility [8]: 3 µg/mL (≈ 7.78 µM)
C=C(C)[C@@H]1CCC(C)=C[C@H]1c1c(O)cc(-c2ccccc2)cc1O	–	–	< 5.00	–	–	–	–	–	< 8.00	–
C=C(C)[C@@H]1CCC(C)=C[C@H]1c1c(O)cc(C2CCCC2)cc1O	1.8	1	–	1080	76.3	6.95	–	514	–	–
C=C(C)[C@@H]1CCC(C)=C[C@H]1c1c(O)cc(C2CCCCC2)cc1O	2.7	0.8	–	616	62.7	7.26	–	216	–	–
C=C(C)[C@@H]1CCC(C)=C[C@H]1c1c(O)cc(CCC)cc1O [CANNABIDIVARIN]	–	–	5.25	–	–	–	94.9	–	< 8.00	–
C=C(C)[C@@H]1CCC(C)=C[C@H]1c1c(O)cc(C2(CCCC)CC2)c(C(N)=O)c1O	2.5	1.3	5.49	545	–	–	93.8	211	6.32	Emax [11]: 101%; Activity (Mus musculus [12]): Dose-Dependent Effect; Activity (Mus musculus [13]): Active; Activity (Mus musculus [14]): Active; Emax (Cannabinoid receptor 2 [15]): 34.9%; Activity [16]: Non-Toxic; Activity (Mus musculus [17]): Active; Activity (Mus musculus [18]): Active; Activity (Mus musculus [19]): Active; Activity (Mus musculus [20]): Active; Activity (Mus musculus [21]): inactive; Activity (Mus musculus [22]): inactive; Cmax [23]: 217 ng/g; Activity (Mus musculus [24]): Active; Activity (Mus musculus [25]): Active; Activity (Mus musculus [26]): Active; Activity (Mus musculus [27]): Dose-Dependent Effect; pEC50 [28]: 5.57
C=Cc1cc(O)c([C@@H]2C=C(C)CC[C@H]2C(=C)C)c(O)c1	–	–	5.19	–	–	–	83.3	–	< 8.00	–
C=C(C)[C@@H]1CCC(C)=C[C@H]1c1c(O)cc(C)cc1O	–	–	5.20	–	–	–	115	–	< 5.00	–
C=C(C)[C@@H]1CCC(C)=C[C@H]1c1c(O)cc(C2(CCCC)CC2)c(C(=O)N(C)C)c1O	1.7	0.7	5.57	115	47.2	6.12	87.2	62.7	–	–
C=C(C)[C@@H]1CCC(C)=C[C@H]1c1c(O)cc(CCCCC)c(C(=O)NC)c1O	–	–	5.59	–	–	–	75.3	–	< 8.00	solubility [8]: 0.7 µg/mL (≈ 1.88 µM)
C=C(C)[C@@H]1CCC(C)=C[C@H]1c1c(O)cc(-c2ccccn2)cc1O	–	–	5.20	–	–	–	92.1	–	< 8.00	–
C=C(C)[C@@H]1CCC(C)=C[C@H]1c1c(O)cc(CCCCC)c(C(=O)NCCN(C)C)c1O	–	–	< 5.00	–	–	–	–	–	< 8.00	–
C=C(C)[C@@H]1CCC(C)=C[C@H]1c1c(O)cc(C(C)C)cc1O	–	–	7.74	–	–	–	94	–	< 8.00	–
